Data taken from the supplement of paper PMC10307832.

Legend:
Assay in all cases: relative viability (nuclei count vs DMSO), 5 days (fraction); higher = more cells survive
[1] = compound: CC1CC(=O)N(C2=CN=C(N=C2N1C3CCCC3)NC4=C(C=C(C=C4)C(=O)NC5CCN(CC5)C)OC)C [NPK76-II-72-1] + CC(C)C[C@H](NC(=O)[C@H](Cc1ccccc1)NC(=O)c1cnccn1)B(O)O [Bortezomib] (partner 0.002 µM)
How it was run: (§1)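 Dosing by pin tool came one day after lung cancer cell lines were seeded in 1536-well plates, using either one drug or a fixed anchor-drug dose plus five library-drug doses (not always all listed) in √10 steps. After 5 days, nuclei were counted on 4× images. Relative viability is treated-well nuclei count divided by vehicle-well nuclei count, and values are medians of duplicate plates.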

[2] = compound: CC1CC(=O)N(C2=CN=C(N=C2N1C3CCCC3)NC4=C(C=C(C=C4)C(=O)NC5CCN(CC5)C)OC)C [NPK76-II-72-1] + C[C@@H](Oc1cc(-c2cnn(C3CCNCC3)c2)cnc1N)c1c(Cl)ccc(F)c1Cl [Crizotinib] (partner 1 µM)
How it was run: as §1

[3] = compound: CC[C@@H]1C(=O)N(C)c2cnc(Nc3ccc(C(=O)NC4CCN(C)CC4)cc3OC)nc2N1C1CCCC1 [BI-2536] + CC(C)C[C@H](NC(=O)[C@H](Cc1ccccc1)NC(=O)c1cnccn1)B(O)O [Bortezomib] (partner 0.002 µM)
How it was run: as §1

[4] = compound: CC[C@@H]1C(=O)N(C)c2cnc(Nc3ccc(C(=O)NC4CCN(C)CC4)cc3OC)nc2N1C1CCCC1 [BI-2536] + NC(=O)Nc1cc(-c2cccc(F)c2)sc1C(=O)N[C@H]1CCCNC1 [AZD7762] (partner 0.2 µM)
How it was run: as §1

Row | Cell Line | relative viability ([1]; first compound 0.01 µM) | relative viability ([1]; first compound 0.03162 µM) | relative viability ([1]; first compound 0.1 µM) | relative viability ([1]; first compound 0.3162 µM) | relative viability ([1]; first compound 1 µM) | relative viability ([2]; first compound 0.01 µM) | relative viability ([2]; first compound 0.03162 µM) | relative viability ([2]; first compound 0.1 µM) | relative viability ([2]; first compound 0.3162 µM) | relative viability ([2]; first compound 1 µM) | relative viability ([3]; first compound 0.01 µM) | relative viability ([3]; first compound 0.03162 µM) | relative viability ([3]; first compound 0.1 µM) | relative viability ([3]; first compound 0.3162 µM) | relative viability ([3]; first compound 1 µM) | relative viability ([4]; first compound 0.01 µM) | relative viability ([4]; first compound 0.03162 µM) | relative viability ([4]; first compound 0.1 µM) | relative viability ([4]; first compound 0.3162 µM) | relative viability ([4]; first compound 1 µM)
1 | HCC-15 | 0.995 | 1.11 | 1.05 | 1.02 | 1.02 | 0.773 | 0.874 | 0.846 | 0.756 | 0.834 | 1.01 | 0.96 | 0.902 | 0.542 | 0.114 | 0.653 | 0.966 | 1.03 | 0.156 | 0.149
2 | HCC-44 | 0.836 | 0.877 | 0.87 | 0.843 | 1.03 | 0.734 | 0.772 | 0.827 | 0.795 | 0.846 | 0.905 | 0.885 | 0.297 | 0.14 | 0.0751 | 1.08 | 1.06 | 0.978 | 0.655 | 0.361
3 | HCC-78 | 0.532 | 0.565 | 0.398 | 0.52 | 0.998 | – | 0.33 | 0.355 | – | 0.368 | 0.505 | 0.559 | 0.487 | 0.352 | 0.219 | 0.75 | 0.576 | 0.687 | 0.433 | 0.249
4 | NCI-H727 | 0.881 | 0.981 | 0.938 | 0.9 | 0.869 | 0.703 | 0.768 | 0.906 | 0.668 | 0.889 | 0.807 | 0.833 | 0.656 | 0.267 | 0.239 | 0.479 | 0.8 | 0.664 | 0.406 | 0.314
5 | NCI-H2087 | 0.941 | 0.861 | 0.63 | 0.737 | 0.82 | 0.844 | 0.786 | 0.82 | 0.902 | 1.01 | 0.858 | 0.677 | 0.693 | 0.128 | 0.139 | 1.26 | 1.45 | 1.23 | 0.111 | 0.114
6 | BEN | 0.773 | 0.659 | 0.763 | 0.466 | 0.875 | 0.89 | 1.07 | 0.908 | 0.77 | 0.893 | 0.61 | 0.896 | 0.43 | 0.223 | 0.287 | 0.67 | 0.711 | 0.521 | 0.419 | 0.396
7 | LCLC-103H | 1.03 | 1.02 | 0.994 | 0.984 | 1.09 | 0.919 | 0.962 | 1.04 | 0.916 | 1.18 | 1.05 | 1.07 | 0.813 | 0.986 | 0.19 | 0.804 | 0.826 | 0.605 | 0.244 | 0.169
8 | EKVX | 1.01 | 0.998 | 1.03 | 0.637 | 1.04 | 0.787 | 1.16 | 0.936 | 0.832 | 0.922 | 0.976 | 1.16 | 1.03 | 0.164 | 0.148 | 0.613 | 0.877 | 0.63 | 0.614 | 0.276
9 | LXF-289 | 1.02 | 1.06 | 0.955 | 1.04 | 1.02 | 0.829 | 0.84 | 0.823 | 0.801 | 0.828 | 0.991 | 0.91 | 0.485 | 0.0621 | 0.0527 | 1 | 1.14 | 0.61 | 0.0819 | 0.083
10 | ABC-1 | 0.272 | 0.306 | 0.299 | 0.254 | 0.358 | 0.907 | 1.13 | 1.06 | 1.01 | 1.1 | 0.252 | 0.29 | 0.265 | 0.242 | 0.213 | 0.576 | 0.871 | – | 0.922 | 0.301
11 | NCI-H650 | 0.862 | 0.678 | 0.729 | – | 1.02 | 0.799 | 0.865 | 0.629 | – | 0.825 | 0.73 | 0.563 | 0.233 | 0.19 | 0.126 | 0.944 | 1.4 | 0.541 | 0.201 | 0.138
12 | NCI-H2085 | 1.05 | 1.01 | 0.977 | 0.953 | 1.02 | 0.864 | 0.962 | 1.03 | 0.778 | 1.01 | 1.05 | 1.01 | 0.587 | 0.371 | 0.381 | 1.03 | 0.963 | 0.737 | 0.217 | 0.27
13 | LC-2-ad | 0.981 | 1.04 | 0.926 | 1.01 | 1.07 | 0.449 | – | 0.453 | 0.44 | 0.51 | 1.06 | 0.923 | 0.112 | 0.124 | 0.104 | 0.872 | 0.657 | 0.166 | 0.17 | 0.142
14 | NCI-H1355 | 1.06 | 1.12 | 1.03 | 1.13 | 1.19 | 0.858 | 1.06 | 1.13 | 0.841 | 1.16 | 1.21 | 1.21 | 0.874 | 0.303 | 0.184 | 0.697 | 0.776 | 0.751 | 0.269 | 0.185
15 | H3255 | 0.841 | 0.642 | 0.647 | – | 1.11 | 0.855 | 0.887 | 0.819 | – | 1.16 | 0.824 | 0.679 | 0.36 | 0.241 | 0.276 | 0.951 | 0.728 | 0.66 | 0.228 | 0.298
16 | NCI-H1993 | 1 | 1.09 | 0.775 | 0.729 | 0.873 | 0.912 | 0.839 | 0.791 | 0.722 | 0.977 | 1.2 | 1 | 0.536 | 0.696 | 0.646 | 0.734 | 0.668 | 0.407 | 0.53 | 0.348
